Results as given in ChEMBL document CHEMBL1201862, “PubChem BioAssay data set” (2004).
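Exposure lasted 48 hours, with cells grown in 96-well plates and compounds tested at five concentrations. GI50 is the concentration that inhibits growth by half.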 Active and inactive are the calls of the source. Cut-off read from the data, not from the text of the source: active = GI50 up to about 1.1 µM and inactive = higher.

Tests used:
Assay in all cases: NCI-60 cell line screen, 48 h
[1] = tested on: ACHN
[2] = tested on: CAKI-1
[3] = tested on: HCC 2998
[4] = tested on: HCT-116
[5] = tested on: HL-60
[6] = tested on: HOP-92
[7] = tested on: HT-29
[8] = tested on: K562
[9] = tested on: KM12
[10] = tested on: LOX IMVI
[11] = tested on: M14
[12] = tested on: NCI-H522
[13] = tested on: OVCAR-8
[14] = tested on: RPMI-8226
[15] = tested on: SK-MEL-5
[16] = tested on: SNB-19
[17] = tested on: SR
[18] = tested on: MDA-MB-231
[19] = tested on: MDA-MB-435

CN1CCOC(c2ccccc2)O1 (stereo not drawn)
GI50 [1]: > 100 µM (inactive)
GI50 [2]: > 100 µM (inactive)
GI50 [3]: > 100 µM (inactive)
GI50 [4]: > 100 µM (inactive)
GI50 [5]: > 100 µM (inactive)
GI50 [6]: > 100 µM (inactive)
GI50 [7]: > 100 µM (inactive)
GI50 [8]: > 100 µM (inactive)
GI50 [9]: > 100 µM (inactive)
GI50 [10]: > 100 µM (inactive)
GI50 [11]: > 100 µM (inactive)
GI50 [12]: > 100 µM (inactive)
GI50 [13]: > 100 µM (inactive)
GI50 [14]: > 100 µM (inactive)
GI50 [15]: > 100 µM (inactive)
GI50 [16]: > 100 µM (inactive)
GI50 [17]: > 100 µM (inactive)

CCC1=C(C[C@H]2NCCc3cc(OC)c(OC)cc32)C[C@H]2c3cc(OC)c(OC)cc3CCN2C1
GI50 [1]: 0.0388 µM (active)
GI50 [2]: 0.0312 µM (active)
GI50 [3]: 0.0293 µM (active)
GI50 [4]: 0.0173 µM (active)
GI50 [5]: 0.0247 µM (active)
GI50 [6]: 0.0204 µM (active)
GI50 [7]: 0.0272 µM (active)
GI50 [11]: 0.0235 µM (active)
GI50 [12]: 0.0257 µM (active)
GI50 [13]: 0.0272 µM (active)
GI50 [14]: 0.021 µM (active)
GI50 [15]: 0.0234 µM (active)
GI50 [17]: 0.0101 µM (active)

CC(=O)NC1C(OCc2ccccc2)OC(CO)C(O)C1OC(C)C(=O)N[C@@H](C)C(=O)N[C@H](CCC(=O)OCCNc1c2ccccc2nc2cccc([N+](=O)[O-])c12)C(N)=O (stereo partly drawn)
GI50 [1]: 0.00145 µM (active)
GI50 [2]: 0.00625 µM (active)
GI50 [3]: 0.000681 µM (active)
GI50 [4]: 0.000195 µM (active)
GI50 [5]: 0.00647 µM (active)
GI50 [6]: 0.00178 µM (active)
GI50 [7]: 0.000186 µM (active)
GI50 [8]: 0.00094 µM (active)
GI50 [9]: 0.00114 µM (active)
GI50 [11]: 0.00109 µM (active)
GI50 [12]: 0.00174 µM (active)
GI50 [13]: 0.00235 µM (active)
GI50 [14]: 0.000782 µM (active)
GI50 [15]: 0.00239 µM (active)
GI50 [16]: 0.000187 µM (active)
GI50 [17]: 3.64e-05 µM (active)

O=c1nc2n(c3nsnc13)CCO2
GI50 [1]: > 100 µM (inactive)
GI50 [2]: > 100 µM (inactive)
GI50 [3]: > 100 µM (inactive)
GI50 [4]: 29.8 µM (inactive)
GI50 [5]: > 100 µM (inactive)
GI50 [6]: > 100 µM (inactive)
GI50 [7]: > 100 µM (inactive)
GI50 [8]: > 100 µM (inactive)
GI50 [9]: > 100 µM (inactive)
GI50 [10]: > 100 µM (inactive)
GI50 [11]: > 100 µM (inactive)
GI50 [12]: > 100 µM (inactive)
GI50 [13]: > 100 µM (inactive)
GI50 [14]: > 100 µM (inactive)
GI50 [15]: > 100 µM (inactive)
GI50 [16]: > 100 µM (inactive)
GI50 [17]: > 100 µM (inactive)

C=C(Br)CN(C#N)CC(=C)Br
GI50 [1]: > 100 µM (inactive)
GI50 [2]: > 100 µM (inactive)
GI50 [3]: > 100 µM (inactive)
GI50 [4]: > 100 µM (inactive)
GI50 [5]: 8.85 µM (inactive)
GI50 [7]: > 100 µM (inactive)
GI50 [8]: > 100 µM (inactive)
GI50 [9]: > 100 µM (inactive)
GI50 [10]: > 100 µM (inactive)
GI50 [11]: > 100 µM (inactive)
GI50 [18]: > 100 µM (inactive)
GI50 [19]: > 100 µM (inactive)
GI50 [12]: > 100 µM (inactive)
GI50 [13]: > 100 µM (inactive)
GI50 [14]: > 100 µM (inactive)
GI50 [15]: > 100 µM (inactive)
GI50 [16]: > 100 µM (inactive)
GI50 [17]: > 100 µM (inactive)

CC(C)=CC1CC(=[N+]=[N-])C(=O)C1(C)C (stereo not drawn)
GI50 [1]: > 100 µM (inactive)
GI50 [2]: > 100 µM (inactive)
GI50 [3]: > 100 µM (inactive)
GI50 [4]: > 100 µM (inactive)
GI50 [5]: > 100 µM (inactive)
GI50 [6]: > 80.7 µM (inactive)
GI50 [7]: > 31.6 µM (inactive)
GI50 [8]: > 71.1 µM (inactive)
GI50 [9]: > 100 µM (inactive)
GI50 [10]: > 75.7 µM (inactive)
GI50 [11]: > 100 µM (inactive)
GI50 [12]: > 80.7 µM (inactive)
GI50 [13]: > 100 µM (inactive)
GI50 [14]: > 51.8 µM (inactive)
GI50 [15]: > 100 µM (inactive)
GI50 [16]: > 100 µM (inactive)
GI50 [17]: 23.1 µM (inactive)

C/C(=N\NC(=O)C(N)=O)c1c(O)cc(C)oc1=O
GI50 [1]: > 100 µM (inactive)
GI50 [3]: > 100 µM (inactive)
GI50 [4]: > 100 µM (inactive)
GI50 [5]: > 100 µM (inactive)
GI50 [6]: > 100 µM (inactive)
GI50 [7]: > 100 µM (inactive)
GI50 [8]: > 100 µM (inactive)
GI50 [9]: > 100 µM (inactive)
GI50 [10]: > 100 µM (inactive)
GI50 [11]: > 100 µM (inactive)
GI50 [13]: > 100 µM (inactive)
GI50 [15]: > 100 µM (inactive)
GI50 [16]: > 100 µM (inactive)
GI50 [17]: > 100 µM (inactive)

O=C(Nc1ccn(CCOC(=O)c2ccccc2)c(=O)n1)c1ccccc1
GI50 [1]: > 100 µM (inactive)
GI50 [2]: > 100 µM (inactive)
GI50 [4]: > 100 µM (inactive)
GI50 [5]: > 100 µM (inactive)
GI50 [6]: > 100 µM (inactive)
GI50 [7]: > 100 µM (inactive)
GI50 [8]: > 100 µM (inactive)
GI50 [9]: > 100 µM (inactive)
GI50 [10]: > 100 µM (inactive)
GI50 [11]: > 100 µM (inactive)
GI50 [12]: > 100 µM (inactive)
GI50 [13]: > 100 µM (inactive)
GI50 [14]: > 100 µM (inactive)
GI50 [15]: > 100 µM (inactive)
GI50 [17]: > 100 µM (inactive)

CN(C)CCN(C)CC1COC(C)(C)O1 (stereo not drawn)
GI50 [1]: > 100 µM (inactive)
GI50 [2]: > 100 µM (inactive)
GI50 [3]: > 100 µM (inactive)
GI50 [4]: > 100 µM (inactive)
GI50 [5]: > 100 µM (inactive)
GI50 [6]: > 100 µM (inactive)
GI50 [7]: > 100 µM (inactive)
GI50 [8]: > 100 µM (inactive)
GI50 [9]: > 100 µM (inactive)
GI50 [10]: > 100 µM (inactive)
GI50 [11]: > 100 µM (inactive)
GI50 [12]: > 100 µM (inactive)
GI50 [13]: > 100 µM (inactive)
GI50 [14]: > 100 µM (inactive)
GI50 [15]: > 100 µM (inactive)
GI50 [16]: > 100 µM (inactive)
GI50 [17]: > 100 µM (inactive)

CNC(=S)N(C)C(=S)Nn1c(=O)c(C)nn(C)c1=S
GI50 [1]: > 100 µM (inactive)
GI50 [4]: > 100 µM (inactive)
GI50 [5]: > 100 µM (inactive)
GI50 [6]: > 100 µM (inactive)
GI50 [7]: > 100 µM (inactive)
GI50 [8]: > 100 µM (inactive)
GI50 [9]: > 100 µM (inactive)
GI50 [10]: > 100 µM (inactive)
GI50 [11]: > 100 µM (inactive)
GI50 [12]: > 100 µM (inactive)
GI50 [13]: > 100 µM (inactive)
GI50 [14]: > 100 µM (inactive)
GI50 [15]: > 100 µM (inactive)
GI50 [16]: > 100 µM (inactive)
GI50 [17]: > 100 µM (inactive)

CCOC(=O)C1C=C2O[C@@H]3OC4(CCCCC4)O[C@@H]3C2[C@H]2C(=O)C=CC(=O)[C@@]12C(=O)OC (stereo partly drawn)
GI50 [1]: 18.1 µM (inactive)
GI50 [2]: 16 µM (inactive)
GI50 [3]: 14.3 µM (inactive)
GI50 [4]: 6.61 µM (inactive)
GI50 [5]: 2.25 µM (inactive)
GI50 [6]: 12.2 µM (inactive)
GI50 [7]: 6.9 µM (inactive)
GI50 [8]: 5.45 µM (inactive)
GI50 [9]: 12.3 µM (inactive)
GI50 [10]: 15.5 µM (inactive)
GI50 [11]: 15.9 µM (inactive)
GI50 [12]: 3.98 µM (inactive)
GI50 [13]: 6.41 µM (inactive)
GI50 [14]: 2.84 µM (inactive)
GI50 [15]: 19.2 µM (inactive)
GI50 [16]: 8.38 µM (inactive)
GI50 [17]: 2.71 µM (inactive)

O=CN/C=C/c1ccccc1O
GI50 [1]: > 100 µM (inactive)
GI50 [2]: > 100 µM (inactive)
GI50 [3]: > 100 µM (inactive)
GI50 [4]: > 100 µM (inactive)
GI50 [5]: > 86.7 µM (inactive)
GI50 [6]: > 100 µM (inactive)
GI50 [7]: > 100 µM (inactive)
GI50 [8]: > 31.6 µM (inactive)
GI50 [9]: > 100 µM (inactive)
GI50 [10]: > 100 µM (inactive)
GI50 [11]: > 100 µM (inactive)
GI50 [12]: > 100 µM (inactive)
GI50 [13]: > 100 µM (inactive)
GI50 [14]: > 100 µM (inactive)
GI50 [15]: > 100 µM (inactive)
GI50 [16]: > 100 µM (inactive)
GI50 [17]: > 100 µM (inactive)
